Source: patent US8173438B1, “Microbiological assessment method and device utilizing oxygen gradient sensing” (Photonic BioSystems, Inc., priority 1996, dated 2012)

Columns and labels:
Assay type in all cases: cell-based
[1] = test system: B. subtilis organisms; test: Integrated biological sensor disk antibiotic susceptibility test (oxygen consumption via luminescent signal), 400,000 cells per disk
Description: In this example, organisms were applied to the integrated biological sensor disk in order to attain rapid measures of activity within the disk's microenvironment while the disk was incubated in culture media containing the antibiotic being assayed for effects on the microbial population.
B. subtilis organisms were cultured in Trypticase Soy Broth (TSB) media to obtain an inoculum of actively growing test organisms. Twenty microliter aliquots, each containing 400,000 cells (established by subsequent plate counting), were removed, and dispensed onto 0.25 inch diameter dry oxygen-sensor disks prepared from 0.45 micron pore cellulose-ester filter membrane stock (Millipore), in a manner similar to that described in Example 7. These integrated biological sensor disks bearing organisms were placed at the bottom of sterile polypropylene vessels, to which was added 1 ml of TSB media containing penicillin at concentrations of 5 ug/ml, or 5 ng/ml, or no antibiotic in the case of the positive growth control.
(§1) All samples were prepared and cultured in parallel, incubated at 37° C. and the oxygen consumption tracked via the integrated sensors' luminescent signals, in a manner similar to that shown in FIG. 7. […] The inhibitory effect of penicillin on organisms' growth was already manifesting itself in this time frame.

[2] = test system: B. subtilis cells; test: Companion study: integrated sensor-BI, 8,000 cells collected by filtration on glass-fiber oxygen-sensor disks; details: for signal change: at about 3.5 hours (control 5% signal increase)
Description: A similar companion study, indicated the potential of the integrated sensor-BI to detect microbial activity and identify antibiotic sensitivity in several hours, using a small number of organisms to initiate the test. Inoculum of only 8,000 B. subtilis cells were collected by filtration, similar to Example 9, on oxygen-sensor disks made from Millipore AP-40 glass-fiber filter material (0.7 micron particle retention). In about 3.5 hours, without antibiotic present, the population expanded in the integrated biological sensor control, producing a 5% level signal increase, i.e. positive indication of outgrowth. […] After 8 hours of incubation, the low-dose penicillin exposed population eventually expanded enabling assay detection of outgrowth. No activity was identified in the sample exposed to the high dose at any point over the 20 hour assay.

[3] = test system: B. subtilis organisms; test: Bulk-volume suspension culture antibiotic test with oxygen-sensor disk at vessel bottom; details: after 60 minutes, control 2%
Description: Alternatively, as a comparison of outgrowth and detection of antibiotic effects under bulk-volume assay conditions, identical aliquots of B. subtilis organisms were and mixed into 1 ml samples of TSB media prepared with and without penicillin as described above and dispensed into vessels. To measure oxygen consumption of the organisms in these bulk suspension samples, oxygen-sensor disks of the same derivation as the above integrated sensors, but without organisms applied to them, were placed in the bottom of the vessels.
as §1
By comparison, the bulk volume cultures of B. subtilis after 60 minutes were just beginning to show indications of growth but were too early into the assay to identify inhibitory effects. The control, without antibiotic present, was just 2% above baseline, which was the same signal level as the 5 ng/ml penicillin sample. The 5 ug/ml high dose registered 1% above baseline.

penicillin
sensitivity of the organisms to the antibiotic ([1]; conclusion from 5 ng/ml and 5 ug/ml samples): sensitive | signal increase (luminescent oxygen sensor signal above baseline) ([1]; penicillin 5 ng/ml, after 60 minutes of assay, 37° C., TSB media, control without penicillin 12%): 6% | metabolic activity (oxygen consumption) ([1]; penicillin 5 ug/ml, throughout 40 hours of monitoring, 37° C.): no evidence of metabolic activity | activity (outgrowth / oxygen consumption) ([2]; high dose penicillin (5 ug/ml), at any point over the 20 hour assay): No activity | incubation time to assay detection of outgrowth ([2]; low-dose penicillin (5 ng/ml), control about 3.5 hours): 8 h | signal change ([2]; penicillin 5 ng/ml): No signal change | signal change ([2]; penicillin 5 ug/ml): No signal change | signal above baseline ([3]; penicillin 5 ng/ml): 2% | signal above baseline ([3]; penicillin 5 ug/ml): 1%
